From PMC11044217 (ACS Omega, 2024)

Target: PAS of hAChE (Homo sapiens, UniProt P22303)
Sequence (P22303 32-614): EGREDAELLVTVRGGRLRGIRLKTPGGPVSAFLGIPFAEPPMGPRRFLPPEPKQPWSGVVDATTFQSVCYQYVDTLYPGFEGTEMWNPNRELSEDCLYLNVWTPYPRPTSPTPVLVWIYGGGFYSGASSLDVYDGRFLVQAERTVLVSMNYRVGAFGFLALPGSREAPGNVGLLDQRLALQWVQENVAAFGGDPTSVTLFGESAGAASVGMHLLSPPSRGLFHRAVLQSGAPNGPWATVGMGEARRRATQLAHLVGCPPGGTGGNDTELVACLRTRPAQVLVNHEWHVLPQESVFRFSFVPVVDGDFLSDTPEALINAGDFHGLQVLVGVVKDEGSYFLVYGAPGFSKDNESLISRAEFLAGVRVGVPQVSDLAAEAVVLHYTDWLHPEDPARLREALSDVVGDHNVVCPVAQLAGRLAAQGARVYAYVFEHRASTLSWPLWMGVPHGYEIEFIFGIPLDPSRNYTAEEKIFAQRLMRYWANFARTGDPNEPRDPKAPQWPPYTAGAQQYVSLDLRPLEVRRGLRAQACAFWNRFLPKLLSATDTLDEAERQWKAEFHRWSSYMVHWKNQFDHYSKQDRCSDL
Experiment: Propidium iodide displacement assay
Format: binding
Conditions: read-out: (%) PAS-AChE propidium iodide displacement (% inhibition) at 10 μM
In the case of `c1ccc(CN2CCN(Cc3nnc(-c4ccccc4)o3)CC2)cc1` [5AB, 2-((4-Benzylpiperazin-1-yl)methyl)-5-phenyl-1,3,4-oxadiazole], the inhibition at 10 µM is reported as 18.4 ± 1.07%.
In the case of `COc1ccc(N2CCN(Cc3nnc(-c4ccccc4)o3)CC2)cc1` [5AH, 2-((4-(4-Methoxyphenyl)piperazin-1-yl)methyl)-5-phenyl-1,3,4-oxadiazole], the inhibition at 10 µM is reported as 19.2 ± 1.81%.
In the case of `Cc1ccc(CN2CCN(Cc3nnc(-c4ccccc4)o3)CC2)cc1` [5AI, 2-((4-(4-Methylbenzyl)piperazin-1-yl)methyl)-5-phenyl-1,3,4-oxadiazole], the inhibition at 10 µM is reported as 17.7 ± 1.26%.

Same assay, conditions: read-out: (%) PAS-AChE propidium iodide displacement (% inhibition) at 50 μM
`c1ccc(CN2CCN(Cc3nnc(-c4ccccc4)o3)CC2)cc1` [5AB, 2-((4-Benzylpiperazin-1-yl)methyl)-5-phenyl-1,3,4-oxadiazole] gave an inhibition at 50 µM of 29.5 ± 1.33%.
`COc1ccc(N2CCN(Cc3nnc(-c4ccccc4)o3)CC2)cc1` [5AH, 2-((4-(4-Methoxyphenyl)piperazin-1-yl)methyl)-5-phenyl-1,3,4-oxadiazole] showed an inhibition at 50 µM of 26.7 ± 1.34%.

Tested on: catalase (CAT)
Experiment: Ex vivo catalase
Format: in vivo, Swiss albino mice
Conditions: hippocampal brain homogenate
In the case of `c1ccc(-c2nnc(CN3CCN(c4ccccn4)CC3)o2)cc1` [5AD, 2-Phenyl-5-((4-(pyridin-2-yl)piperazin-1-yl)methyl)-1,3,4-oxadiazole], the “catalase (CAT) level in brain homogenate” value is reported as “increase in catalase”.

Tested on: Swiss albino mice
Experiment: Scopolamine-induced Y-maze test
Format: in vivo
Conditions: scopolamine-induced cognitive dysfunction mice model, p < 0.001
With `c1ccc(-c2nnc(CN3CCN(c4ccccn4)CC3)o2)cc1` [5AD, 2-Phenyl-5-((4-(pyridin-2-yl)piperazin-1-yl)methyl)-1,3,4-oxadiazole] the learning and memory was “significant improvement in learning and memory”.

Tested on: not listed separately
Experiment: DPPH radical scavenging assay
Conditions: in methanol
For `c1ccc(CN2CCN(Cc3nnc(-c4ccccc4)o3)CC2)cc1` [5AB, 2-((4-Benzylpiperazin-1-yl)methyl)-5-phenyl-1,3,4-oxadiazole], the “% RSA of DPPH ± SEM at 25 μM” value was 42.24%.
With `c1ccc(-c2nnc(CN3CCN(c4ccccn4)CC3)o2)cc1` [5AD, 2-Phenyl-5-((4-(pyridin-2-yl)piperazin-1-yl)methyl)-1,3,4-oxadiazole] the “% RSA of DPPH ± SEM at 25 μM” value was 44.35%.
In the case of `Cc1ccc(N2CCN(Cc3nnc(-c4ccccc4)o3)CC2)cc1` [5AG, 2-Phenyl-5-((4-(p-tolyl)piperazin-1-yl)methyl)-1,3,4-oxadiazole], the “% RSA of DPPH ± SEM at 25 μM” value is reported as 36.30 ± 2.5%.
In the case of `COc1ccc(N2CCN(Cc3nnc(-c4ccccc4)o3)CC2)cc1` [5AH, 2-((4-(4-Methoxyphenyl)piperazin-1-yl)methyl)-5-phenyl-1,3,4-oxadiazole], the “% RSA of DPPH ± SEM at 25 μM” value is reported as 38.78 ± 2.9%.
With `Cc1ccc(CN2CCN(Cc3nnc(-c4ccccc4)o3)CC2)cc1` [5AI, 2-((4-(4-Methylbenzyl)piperazin-1-yl)methyl)-5-phenyl-1,3,4-oxadiazole] the “% RSA of DPPH ± SEM at 25 μM” value was 36.24 ± 2.6%.
For `O=C1O[C@H]([C@@H](O)CO)C(O)=C1O` [Ascorbic acid, reference compound], the “% RSA of DPPH ± SEM at 25 μM” value was 59.65 ± 2.3%.

Target: hBACE-1 (Homo sapiens, UniProt P56817)
Sequence (P56817 46-501): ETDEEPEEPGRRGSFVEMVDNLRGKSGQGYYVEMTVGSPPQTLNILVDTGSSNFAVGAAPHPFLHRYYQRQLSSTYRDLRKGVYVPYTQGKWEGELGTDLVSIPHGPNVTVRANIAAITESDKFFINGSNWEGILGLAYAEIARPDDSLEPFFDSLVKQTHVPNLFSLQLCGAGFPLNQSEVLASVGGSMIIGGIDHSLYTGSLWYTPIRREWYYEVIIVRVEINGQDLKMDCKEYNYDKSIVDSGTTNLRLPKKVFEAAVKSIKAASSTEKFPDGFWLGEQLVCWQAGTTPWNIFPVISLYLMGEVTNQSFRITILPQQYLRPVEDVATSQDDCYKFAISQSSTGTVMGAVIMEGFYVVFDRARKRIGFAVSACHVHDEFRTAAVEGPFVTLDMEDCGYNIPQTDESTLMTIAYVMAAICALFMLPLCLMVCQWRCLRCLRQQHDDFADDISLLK
Experiment: BACE-1 inhibition, FRET-based fluorometric assay
Format: biochemical
Conditions: not given
With `c1ccc(CN2CCN(Cc3nnc(-c4ccccc4)o3)CC2)cc1` [5AB, 2-((4-Benzylpiperazin-1-yl)methyl)-5-phenyl-1,3,4-oxadiazole] the IC50 was over 10 µM.
`c1ccc(-c2nnc(CN3CCN(C(c4ccccc4)c4ccccc4)CC3)o2)cc1` [5AC, 2-((4-Benzhydrylpiperazin-1-yl)methyl)-5-phenyl-1,3,4-oxadiazole] showed an IC50 of 5.62 ± 0.073 µM.
For `c1ccc(-c2nnc(CN3CCN(c4ccccn4)CC3)o2)cc1` [5AD, 2-Phenyl-5-((4-(pyridin-2-yl)piperazin-1-yl)methyl)-1,3,4-oxadiazole], the IC50 was 1.34 ± 0.078 µM.
With `O=[N+]([O-])c1ccc(N2CCN(Cc3nnc(-c4ccccc4)o3)CC2)cc1` [5AF, 2-((4-(4-Nitrophenyl)piperazin-1-yl)methyl)-5-phenyl-1,3,4-oxadiazole] the IC50 was 6.242 ± 0.03 µM.
In the case of `Cc1ccc(N2CCN(Cc3nnc(-c4ccccc4)o3)CC2)cc1` [5AG, 2-Phenyl-5-((4-(p-tolyl)piperazin-1-yl)methyl)-1,3,4-oxadiazole], the IC50 is reported as 3.81 ± 0.039 µM.
In the case of `COc1ccc(N2CCN(Cc3nnc(-c4ccccc4)o3)CC2)cc1` [5AH, 2-((4-(4-Methoxyphenyl)piperazin-1-yl)methyl)-5-phenyl-1,3,4-oxadiazole], the IC50 is reported as 1.685 ± 0.012 µM.
Work on `Cc1ccc(CN2CCN(Cc3nnc(-c4ccccc4)o3)CC2)cc1` [5AI, 2-((4-(4-Methylbenzyl)piperazin-1-yl)methyl)-5-phenyl-1,3,4-oxadiazole] yielded an IC50 of 0.392 ± 0.021 µM.

Target: hAChE (Homo sapiens, UniProt P22303)
Sequence (P22303 32-617 isoform P22303-2 limits assumed): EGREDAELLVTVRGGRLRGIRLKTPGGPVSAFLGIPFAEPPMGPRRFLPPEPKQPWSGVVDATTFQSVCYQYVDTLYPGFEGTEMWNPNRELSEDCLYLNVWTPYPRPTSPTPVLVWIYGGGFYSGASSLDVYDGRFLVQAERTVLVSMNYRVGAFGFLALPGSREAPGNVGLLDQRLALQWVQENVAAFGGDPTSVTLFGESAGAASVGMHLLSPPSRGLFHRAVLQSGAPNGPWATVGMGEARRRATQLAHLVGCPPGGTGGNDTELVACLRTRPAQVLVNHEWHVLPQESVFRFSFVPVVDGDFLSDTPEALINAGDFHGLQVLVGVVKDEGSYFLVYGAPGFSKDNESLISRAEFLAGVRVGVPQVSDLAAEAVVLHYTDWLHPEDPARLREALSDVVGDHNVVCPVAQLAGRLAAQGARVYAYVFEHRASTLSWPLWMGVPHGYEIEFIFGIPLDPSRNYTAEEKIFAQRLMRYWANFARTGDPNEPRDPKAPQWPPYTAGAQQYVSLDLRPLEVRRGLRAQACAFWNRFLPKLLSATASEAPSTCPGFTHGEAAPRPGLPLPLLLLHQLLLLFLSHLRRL
Experiment: hAChE inhibition, Ellman's colorimetric method
Format: biochemical
Conditions: not given
Work on `c1ccc(-c2nnc(CN3CCN(c4ccccc4)CC3)o2)cc1` [5AA, 2-Phenyl-5-((4-phenylpiperazin-1-yl)methyl)-1,3,4-oxadiazole] yielded an IC50 of 1.83 ± 0.076 µM.
`c1ccc(CN2CCN(Cc3nnc(-c4ccccc4)o3)CC2)cc1` [5AB, 2-((4-Benzylpiperazin-1-yl)methyl)-5-phenyl-1,3,4-oxadiazole] gave an IC50 of 1.79 ± 0.032 µM.
`c1ccc(-c2nnc(CN3CCN(C(c4ccccc4)c4ccccc4)CC3)o2)cc1` [5AC, 2-((4-Benzhydrylpiperazin-1-yl)methyl)-5-phenyl-1,3,4-oxadiazole] showed an IC50 of 3.15 ± 0.0202 µM.
`c1ccc(-c2nnc(CN3CCN(c4ccccn4)CC3)o2)cc1` [5AD, 2-Phenyl-5-((4-(pyridin-2-yl)piperazin-1-yl)methyl)-1,3,4-oxadiazole] gave an IC50 of 0.103 ± 0.0172 µM.
Compound `O=[N+]([O-])c1ccc(N2CCN(Cc3nnc(-c4ccccc4)o3)CC2)cc1` [5AF, 2-((4-(4-Nitrophenyl)piperazin-1-yl)methyl)-5-phenyl-1,3,4-oxadiazole] has an IC50 of 1.87 ± 0.0441 µM.
`Cc1ccc(N2CCN(Cc3nnc(-c4ccccc4)o3)CC2)cc1` [5AG, 2-Phenyl-5-((4-(p-tolyl)piperazin-1-yl)methyl)-1,3,4-oxadiazole] showed an IC50 of 2.59 ± 0.0169 µM.
For `COc1ccc(N2CCN(Cc3nnc(-c4ccccc4)o3)CC2)cc1` [5AH, 2-((4-(4-Methoxyphenyl)piperazin-1-yl)methyl)-5-phenyl-1,3,4-oxadiazole], the IC50 was 1.48 ± 0.0719 µM.
In the case of `Cc1ccc(CN2CCN(Cc3nnc(-c4ccccc4)o3)CC2)cc1` [5AI, 2-((4-(4-Methylbenzyl)piperazin-1-yl)methyl)-5-phenyl-1,3,4-oxadiazole], the IC50 is reported as 1.797 ± 0.0081 µM.

Target: T1, AChE (Mus musculus, UniProt P21836)
T1 sequence (P21836 32-614): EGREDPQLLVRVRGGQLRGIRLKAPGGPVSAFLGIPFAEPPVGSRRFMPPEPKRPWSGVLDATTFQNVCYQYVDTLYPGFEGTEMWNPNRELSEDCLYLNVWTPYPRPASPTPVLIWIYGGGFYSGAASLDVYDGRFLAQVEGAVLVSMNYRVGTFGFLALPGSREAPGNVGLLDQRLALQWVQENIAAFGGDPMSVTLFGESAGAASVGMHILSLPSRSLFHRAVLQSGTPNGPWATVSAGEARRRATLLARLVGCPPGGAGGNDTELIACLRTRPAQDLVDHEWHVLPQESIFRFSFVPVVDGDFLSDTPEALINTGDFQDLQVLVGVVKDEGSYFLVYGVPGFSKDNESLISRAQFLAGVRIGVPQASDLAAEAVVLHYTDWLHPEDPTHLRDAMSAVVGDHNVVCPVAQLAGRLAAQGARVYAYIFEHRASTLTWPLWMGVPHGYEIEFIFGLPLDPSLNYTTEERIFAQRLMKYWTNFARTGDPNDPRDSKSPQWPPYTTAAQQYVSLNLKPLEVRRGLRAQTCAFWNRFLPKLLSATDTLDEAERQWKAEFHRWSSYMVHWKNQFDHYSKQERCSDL
Experiment: Ex vivo AChE level in hippocampal brain homogenate
Design: species or system Swiss albino mice
Conditions: in comparison with scopolamine-treated group
With `c1ccc(-c2nnc(CN3CCN(c4ccccn4)CC3)o2)cc1` [5AD, 2-Phenyl-5-((4-(pyridin-2-yl)piperazin-1-yl)methyl)-1,3,4-oxadiazole] the “AChE level in hippocampal brain homogenate” value was “decrease in AChE”.

Tested on: not listed separately
Experiment: in vitro
Conditions: pig, PAMPA, pH 7.4
In the case of `c1ccc(-c2nnc(CN3CCN(c4ccccn4)CC3)o2)cc1` [5AD, 2-Phenyl-5-((4-(pyridin-2-yl)piperazin-1-yl)methyl)-1,3,4-oxadiazole], the Papp is reported as 65 ± 0.72 nm/s.
With `COc1ccc(N2CCN(Cc3nnc(-c4ccccc4)o3)CC2)cc1` [5AH, 2-((4-(4-Methoxyphenyl)piperazin-1-yl)methyl)-5-phenyl-1,3,4-oxadiazole] the Papp was 58 ± 1.75 nm/s.

Target: hBChE (Homo sapiens, UniProt P06276)
Sequence (P06276 29-602): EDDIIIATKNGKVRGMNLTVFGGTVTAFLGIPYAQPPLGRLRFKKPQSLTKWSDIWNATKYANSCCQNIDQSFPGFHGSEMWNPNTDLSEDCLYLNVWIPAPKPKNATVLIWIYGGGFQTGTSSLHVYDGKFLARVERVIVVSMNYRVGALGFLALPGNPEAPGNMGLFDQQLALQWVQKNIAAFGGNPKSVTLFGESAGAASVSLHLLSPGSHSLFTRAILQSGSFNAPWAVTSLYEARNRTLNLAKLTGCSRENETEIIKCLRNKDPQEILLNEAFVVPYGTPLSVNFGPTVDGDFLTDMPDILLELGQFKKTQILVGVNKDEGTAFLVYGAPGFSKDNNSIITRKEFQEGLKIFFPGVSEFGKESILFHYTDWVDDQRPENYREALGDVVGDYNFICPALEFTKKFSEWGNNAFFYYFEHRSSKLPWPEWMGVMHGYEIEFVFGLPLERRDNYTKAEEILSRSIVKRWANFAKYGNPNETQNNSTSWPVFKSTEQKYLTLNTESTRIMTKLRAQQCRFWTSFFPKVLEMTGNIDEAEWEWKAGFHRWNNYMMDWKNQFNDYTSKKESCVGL
Experiment: hBChE inhibition, Ellman's colorimetric method
Format: biochemical
Conditions: IC50 ± SEM hBChE, n = 3
`c1ccc(-c2nnc(CN3CCN(c4ccccc4)CC3)o2)cc1` [5AA, 2-Phenyl-5-((4-phenylpiperazin-1-yl)methyl)-1,3,4-oxadiazole] showed an IC50 of over 10 µM.
With `c1ccc(CN2CCN(Cc3nnc(-c4ccccc4)o3)CC2)cc1` [5AB, 2-((4-Benzylpiperazin-1-yl)methyl)-5-phenyl-1,3,4-oxadiazole] the IC50 was over 10 µM.
With `c1ccc(-c2nnc(CN3CCN(c4ccccn4)CC3)o2)cc1` [5AD, 2-Phenyl-5-((4-(pyridin-2-yl)piperazin-1-yl)methyl)-1,3,4-oxadiazole] the IC50 was at least 10 µM.
Work on `O=[N+]([O-])c1ccc(N2CCN(Cc3nnc(-c4ccccc4)o3)CC2)cc1` [5AF, 2-((4-(4-Nitrophenyl)piperazin-1-yl)methyl)-5-phenyl-1,3,4-oxadiazole] yielded an IC50 of over 10 µM.
In the case of `Cc1ccc(N2CCN(Cc3nnc(-c4ccccc4)o3)CC2)cc1` [5AG, 2-Phenyl-5-((4-(p-tolyl)piperazin-1-yl)methyl)-1,3,4-oxadiazole], the IC50 is reported as over 10 µM.
Compound `COc1ccc(N2CCN(Cc3nnc(-c4ccccc4)o3)CC2)cc1` [5AH, 2-((4-(4-Methoxyphenyl)piperazin-1-yl)methyl)-5-phenyl-1,3,4-oxadiazole] has an IC50 of over 10 µM.
